target: T1, HIV1 protease (Human immunodeficiency virus type 1 group M subtype B, UniProt P04585); assay: Test 3: inhibition of proteolytic activity of HIV-1 protease by scintillation proximity assay (SPA); assay type: biochemical; conditions: IC50 >500 nM; read-out: Enzyme Assays (SPA) % inhibition
Source text: TEST 3-INHIBITION OF PROTEOLYTIC ACTIVITY OF HIV-1-PROTEASE AS DETERMINED BY SCINTILLATION […] ASSAY (SPA).
This is an alternative assay to test #1 and is used to determine the ability of compounds to inhibit the HIV1 protease activity. The SPA assay for HIV1 protease has been developed by Amersham Corporation, Arlington Heights, Ill., and is available for commercial use. In this system the substrate for HIV1 protease, AcN-(I^125)[…]SPA bead, is cleaved by the HIV1 protease at the Phe-Phe bond releasing the I^125 -labelled peptide fragment from the SPA bead. This event causes removal of detectable signal from the microsphere bead indicated by reduction in radioactivity (measured in CPM), which is proportional to the proteolytic activity. The substrate, and the HIV 1 protease were incubated in presence of synthetic compound in various dilutions at room temperature for 40 minutes, and the concentration of the compound required to inhibit the proteolytic activity by 50% (IC50) was determined.

Structure (SMILES)	inhibition at 0.5 µM [%]
CC(C)(C)NC(=O)c1ccccc1OC[C@@H](O)[C@H](Cc1ccccc1)NC(=O)[C@H](CC(N)=O)NC(=O)c1cnc2nc(N)nc(O)c2n1 [Compound 68]	36
CC(C)(C)NC(=O)c1ccccc1OC[C@@H](O)[C@H](Cc1ccccc1)NC(=O)[C@H](CC(N)=O)NC(=O)c1nc2ccccc2nc1O [Compound 64]	36
CCC(C)[C@H](NC(=O)c1ccc2ccccc2n1)C(=O)N[C@@H](Cc1ccccc1)[C@H](O)COc1ccccc1C(=O)NC(C)(C)C (stereo partly shown) [Compound 38]	46
CC(C)(C)NC(=O)c1ccccc1OC[C@H](O)[C@H](Cc1ccccc1)NC(=O)[C@H](CC(N)=O)NC(=O)c1nc2ccccc2nc1O [Compound 63]	35

same assay, conditions: SPA; room temperature, 40 minutes; read-out: Enzyme Assays (SPA) IC50

Structure (SMILES)	IC50 [nM]
Cc1c(C)c2c(c(C)c1O)CCC(C)(C(=O)N[C@@H](CC(N)=O)C(=O)N[C@@H](Cc1ccccc1)[C@@H](O)COc1ccccc1C(=O)NC(C)(C)C)O2 (stereo partly shown) [Compound 71]	245
NC(=O)C[C@H](NC(=O)c1ccc2ccccc2n1)C(=O)N[C@@H](Cc1ccccc1)[C@@H](O)CSC1CCCC1C(=O)Nc1ccccc1 (stereo partly shown) [Compound 14]	> 200
CC(C)(C)NC(=O)c1cccc(SC[C@H](O)[C@H](Cc2ccccc2)NC(=O)[C@H](CC(N)=O)NC(=O)c2ccc3ccccc3n2)c1 [Compound 25]	> 200
CC(C)(C)NC(=O)c1cccc(SC[C@@H](O)[C@H](Cc2ccccc2)NC(=O)[C@H](CC(N)=O)NC(=O)c2ccc3ccccc3n2)c1 [Compound 26]	> 200
CC(C)(C)NC(=O)c1ccccc1OC[C@H](O)[C@H](Cc1ccccc1)NC(=O)[C@H](CC(N)=O)NC(=O)c1cnnc2ccccc12 [Compound 65]	500
CCC(C)[C@H](NC(=O)c1ccc2ccccc2n1)C(=O)N[C@@H](Cc1ccccc1)[C@H](O)CSc1ccccc1C(=O)NC(C)(C)C (stereo partly shown) [Compound 36]	132
CC(C)(C)NC(=O)c1ccccc1OC[C@@H](O)[C@H](Cc1ccccc1)NC(=O)[C@H](CC(N)=O)NC(=O)c1cnnc2ccccc12 [Compound 66]	124
CC(C)(C)NC(=O)c1ccc2ccccc2c1OC[C@@H](O)[C@H](Cc1ccccc1)NC(=O)[C@H](CC(N)=O)NC(=O)c1ccc2ccccc2n1 [Compound 12]	230
NC(=O)C[C@H](NC(=O)c1ccc2ccccc2n1)C(=O)N[C@@H](Cc1ccccc1)[C@@H](O)CSc1nc2ccccc2[nH]1 [Compound 22]	> 200
CC(C)(C)NC(=O)c1ccccc1OC[C@H](O)[C@H](Cc1ccccc1)NC(=O)[C@H](CC(N)=O)NC(=O)c1cc(O)c2ccccc2n1 [Compound 61]	410
CC(C)(C)NC(=O)c1ccccc1OC[C@@H](O)[C@H](Cc1ccccc1)NC(=O)[C@H](CC(N)=O)NC(=O)c1cnc2nc(N)nc(O)c2n1 [Compound 68]	> 500
CC(C)(C)NC(=O)c1ccccc1OC[C@@H](O)[C@H](CCc1ccccc1)NC(=O)[C@H](CC(N)=O)NC(=O)c1ccc2ccccc2n1 [Compound 76]	> 500
CC(C)(C)NC(=O)c1c(OC[C@@H](O)[C@H](Cc2ccccc2)NC(=O)[C@H](CC(N)=O)NC(=O)c2ccc3ccccc3n2)ccc2ccccc12 [Compound 10]	110
CC(C)(C)NC(=O)c1ccc(SC[C@H](O)[C@H](Cc2ccccc2)NC(=O)[C@H](CC(N)=O)NC(=O)c2ccc3ccccc3n2)cc1 [Compound 23]	> 200
CC(C)(C)NC(=O)c1ccccc1OC[C@@H](O)[C@H](Cc1ccccc1)NC(=O)[C@H](CC(N)=O)NC(=O)OCc1ccccc1 [IN 8]	125
CC(C)(C)NC(=O)c1cc2ccccc2cc1OC[C@@H](O)[C@H](Cc1ccccc1)NC(=O)[C@H](CC(N)=O)NC(=O)c1ccc2ccccc2n1 [Compound 11]	280

Structure (SMILES)	IC50 [nM]
NC(=O)C[C@H](NC(=O)c1ccc2ccccc2n1)C(=O)N[C@@H](Cc1ccccc1)[C@H](O)CSC1CCCC1C(=O)Nc1ccccc1 (single isomer, unassigned) [Compound 17]	200
CC(C)(C)NC(=O)c1ccc(SC[C@@H](O)[C@H](Cc2ccccc2)NC(=O)[C@H](CC(N)=O)NC(=O)c2ccc3ccccc3n2)cc1 [Compound 24]	> 200
CC(C)(C)NC(=O)CCSC[C@@H](O)[C@H](Cc1ccccc1)NC(=O)[C@H](CC(N)=O)NC(=O)c1ccc2ccccc2n1 [Compound 28]	> 200
CC(C)(C)NC(=O)c1ccccc1OC[C@@H](O)[C@H](Cc1ccccc1)NC(=O)[C@H](CC(N)=O)NC(=O)c1nc2ccccc2nc1O [Compound 64]	> 500
CC(C)(C)NC(=O)c1cccnc1OC[C@H](O)[C@H](Cc1ccccc1)NC(=O)[C@H](CC(N)=O)NC(=O)c1ccc2ccccc2n1 [Compound 6]	> 500
CCC(C)[C@H](NC(=O)c1ccc2ccccc2n1)C(=O)N[C@@H](Cc1ccccc1)[C@H](O)COc1ccccc1C(=O)NC(C)(C)C (stereo partly shown) [Compound 38]	> 500
CN(C)C(=O)C[C@H](NC(=O)c1ccc2ccccc2n1)C(=O)N[C@@H](Cc1ccccc1)[C@H](O)CSc1ccccc1C(=O)NC(C)(C)C [Compound 42]	> 200
NC(=O)C[C@H](NC(=O)c1ccc2ccccc2n1)C(=O)N[C@@H](Cc1ccccc1)[C@H](O)CSC1CCCC1C(=O)Nc1ccccc1 (stereo partly shown) [Compound 21]	> 200
CC(C)(C)NC(=O)c1ccccc1SC[C@@H](O)[C@H](Cc1ccccc1)NC(=O)[C@H](Cc1ccccc1)NC(=O)c1ccc2ccccc2n1 [Compound 34]	> 200
CC(C)(C)NC(=O)c1ccccc1OC[C@@H](O)[C@H](Cc1ccccc1)NC(=O)[C@H](CC(N)=O)NC(=O)c1cnc2ccccc2n1 [Compound 60]	48
NC(=O)C[C@H](NC(=O)c1ccc2ccccc2n1)C(=O)N[C@@H](Cc1ccccc1)[C@H](O)CSC1CCCC1C(=O)Nc1ccccc1 (single isomer, unassigned) [Compound 15]	> 200
CCC(C)[C@H](NC(=O)OC(C)(C)C)C(=O)N[C@@H](Cc1ccccc1)[C@H](O)CSc1ccccc1C(=O)NC(C)(C)C (stereo partly shown) [IN 7]	> 500
CC(C)(C)NC(=O)c1ccccc1OC[C@H](O)[C@H](Cc1ccccc1)NC(=O)[C@H](CC(N)=O)NC(=O)c1nc2ccccc2nc1O [Compound 63]	> 500
CCC(C)C(NC(=O)c1ccc2ccccc2n1)C(=O)N[C@@H](Cc1ccccc1)[C@H](O)CSc1ccccc1C(=O)NC(C)(C)C (stereo partly shown) [Compound 39]	> 200
NC(=O)C[C@H](NC(=O)c1ccc2ccccc2n1)C(=O)N[C@@H](Cc1ccccc1)[C@@H](O)CSc1ccccc1C(=O)NC12CC3CC(CC(C3)C1)C2 [Compound 29]	> 200

same assay, conditions: read-out: Enzyme Assays (SPA) IC50

Structure (SMILES)	IC50 [nM]
CC(C)(C)NC(=O)c1ccccc1OC[C@H](O)[C@H](Cc1ccccc1)NC(=O)[C@H](CC(N)=O)NC(=O)c1ccc2c(c1)C(=O)c1ccccc1C2=O [Compound 69]	84
CC(C)(C)NC(=O)c1ccccc1OC[C@H](O)[C@H](Cc1ccccc1)NC(=O)[C@H](CC(N)=O)NS(=O)(=O)c1ccc2ccccc2c1 [Compound 73]	425
CC(C)(C)NC(=O)c1ccccc1OC[C@@H](O)[C@H](Cc1ccccc1)NC(=O)[C@H](CC(N)=O)NC(=O)c1ccc2c(c1)C(=O)c1ccccc1C2=O [Compound 70]	55

target: T1, HIV1 protease; assay: Test 1: inhibition of proteolytic activity of HIV-1 protease (HPLC); assay type: biochemical; set-up: proteolytic activity of HIV-1 protease; conditions: HPLC; HIV Substrate III; read-out: Enzyme Assays (HPLC) IC50
Procedure: TEST I-INHIBITION OF PROTEOLYTIC ACTIVITY OF HIV-1-PROTEASE
The ability of compounds of the invention to inhibit the proteolytic activity of HIV-1 protease was determined by using the method of Louis, et al., Biochem. Biophys. Res. Comm. 159:87-94, (1989), which is herein incorporated by reference. In using the method of Louis et al., HIV Substrate III, His-Lys-Ala-Arg-VaI-Leu-pNO2 Phe-Glu-Ala-Nle-Ser-NH2 purchased from Bachem Bioscience, Inc. Philadelphia, Pa. was used in place of the nonapeptide substrate […]amide.

Structure (SMILES)	IC50 [nM]
CC(C)(C)NC(=O)CCSC[C@H](O)[C@H](Cc1ccccc1)NC(=O)[C@H](CC(N)=O)NC(=O)c1ccc2ccccc2n1 [Compound 27]	> 500
CSCC[C@H](NC(=O)c1ccc2ccccc2n1)C(=O)N[C@@H](Cc1ccccc1)[C@@H](O)CSc1ccccc1C(=O)NC(C)(C)C [Compound 44]	> 100
CC(C)(C)NC(=O)c1ccccc1SC[C@H](O)[C@H](Cc1ccccc1)NC(=O)[C@H](CCC(N)=O)NC(=O)c1ccc2ccccc2n1 [Compound 48]	> 100
CN(C)C(=O)C[C@H](NC(=O)c1ccc2ccccc2n1)C(=O)N[C@@H](Cc1ccccc1)[C@@H](O)CSc1ccccc1C(=O)NC(C)(C)C [Compound 41]	> 100
CC(C)(C)NC(=O)c1ccccc1SC[C@H](O)[C@H](Cc1ccccc1)NC(=O)[C@H](CC(N)=O)NC(=O)c1cccnc1O [Compound 58]	> 100

From patent US5516784A, “Anti-HIV (AIDS) agents” (Schering Corporation, priority 1994, dated 1996)
